Data: patent US8614201B2 (Janssen Pharmaceutica NV, priority 2009, dated 2013)

Target: Human TRPA1 (Homo sapiens, UniProt O75762)
Assay: Alternative TRPA1 Ca2+ fluorometry assay (hTRPA1/TREx-HEK293 cells, Fluo-4, FDSS 6000)
Format: cell-based
Parameters: expressed in transfected cells
Settings: Fluo-4-AM, agonist 6,11-dihydro-5H-dibenzo[b,e]azepine-10-carboxylic acid methyl ester 25 nM, procedure used for Examples 184, 190 to 192, 194 to 316
Method in brief: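 Tetracycline-induced (50 ng/ml, 24 h) hTRPA1/TREx-HEK293 cells were loaded with Fluo-4-AM and probenecid. Compound (1% DMSO final) was added after a 12 s baseline and the Ca2+ signal followed for 14 min, then 25 nM TRPA1 agonist dibenzazepine carboxylic acid methyl ester was applied. Signal is Em540 (ex 488 nm) relative to the first baseline reading.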

Sequence of Human TRPA1 (O75762 whole entry): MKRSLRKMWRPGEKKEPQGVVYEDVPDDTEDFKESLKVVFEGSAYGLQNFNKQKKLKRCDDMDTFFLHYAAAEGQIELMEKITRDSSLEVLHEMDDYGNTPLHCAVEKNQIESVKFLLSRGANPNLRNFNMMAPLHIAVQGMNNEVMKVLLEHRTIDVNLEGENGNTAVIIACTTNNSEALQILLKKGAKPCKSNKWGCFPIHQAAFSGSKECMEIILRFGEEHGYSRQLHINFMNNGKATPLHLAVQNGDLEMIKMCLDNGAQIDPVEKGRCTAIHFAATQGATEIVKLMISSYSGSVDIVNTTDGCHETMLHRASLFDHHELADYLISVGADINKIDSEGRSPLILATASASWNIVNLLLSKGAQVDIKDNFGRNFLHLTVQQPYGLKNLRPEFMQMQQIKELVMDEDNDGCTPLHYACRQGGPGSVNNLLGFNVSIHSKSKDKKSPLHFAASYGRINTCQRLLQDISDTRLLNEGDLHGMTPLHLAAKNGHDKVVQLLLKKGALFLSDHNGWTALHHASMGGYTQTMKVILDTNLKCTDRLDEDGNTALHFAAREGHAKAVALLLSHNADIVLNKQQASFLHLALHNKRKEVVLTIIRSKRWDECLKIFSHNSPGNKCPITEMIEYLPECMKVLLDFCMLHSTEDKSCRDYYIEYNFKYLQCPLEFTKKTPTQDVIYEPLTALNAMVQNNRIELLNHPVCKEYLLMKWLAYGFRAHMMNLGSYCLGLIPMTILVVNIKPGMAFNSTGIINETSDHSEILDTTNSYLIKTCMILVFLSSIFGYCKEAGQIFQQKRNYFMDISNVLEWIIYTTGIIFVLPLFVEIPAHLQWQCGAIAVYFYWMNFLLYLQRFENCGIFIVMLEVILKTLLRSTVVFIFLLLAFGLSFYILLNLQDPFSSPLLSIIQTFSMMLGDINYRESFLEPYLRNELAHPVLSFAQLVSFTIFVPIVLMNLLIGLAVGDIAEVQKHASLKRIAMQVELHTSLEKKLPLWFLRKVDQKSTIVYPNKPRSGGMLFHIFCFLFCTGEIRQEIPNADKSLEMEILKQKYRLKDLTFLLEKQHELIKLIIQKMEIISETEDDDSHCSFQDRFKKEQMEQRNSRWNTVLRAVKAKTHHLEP

SMILES | IC50 [µM]
O=C(NCc1cc(-c2ccc3c(c2)OCO3)nc(NCCc2ccc(Cl)cc2Cl)n1)[C@@H]1CCCN1S(=O)(=O)c1ccc(F)cc1 [Example 292, 1-(4-Fluoro-benzenesulfonyl)-pyrrolidine-2S-carboxylic acid {6-benzo[1,3]dioxol-5-yl-2-[2-(2,4-dichloro-phenyl)-ethylamino]-pyrimidin-4-ylmethyl}-amide] | > 10
CCOC(=O)C1CCN(c2nc(CNC(=O)[C@@H]3CCCN3S(=O)(=O)c3ccc(F)cc3)cc(-c3ccc(Br)cc3)n2)CC1 [Example 214, 1-[4-(4-Bromo-phenyl)-6-({[1-(4-fluoro-benzenesulfonyl)-pyrrolidine-2S-carbonyl]-amino}-methyl)-pyrimidin-2-yl]-piperidine-4-carboxylic acid ethyl ester] | ~0.977
Cc1ccc(C)c(-c2cc(CNC(=O)[C@@H]3CCCN3S(=O)(=O)c3ccc(F)cc3)nc(N3CCN(c4ccccc4F)CC3)n2)c1 [Example 232, 1-(4-Fluoro-benzenesulfonyl)-pyrrolidine-2S-carboxylic acid {6-(2,5-dimethyl-phenyl)-2-[4-(2-fluoro-phenyl)-piperazin-1-yl]-pyrimidin-4-ylmethyl}-amide] | 1.12
O=C(NCc1cc(-c2ccc(Br)cc2)nc(NC2CCCC2)n1)[C@@H]1CCCN1S(=O)(=O)c1ccc(F)cc1 [Example 211, 1-(4-Fluoro-benzenesulfonyl)-pyrrolidine-2S-carboxylic acid [6-(4-bromo-phenyl)-2-cyclopentylamino-pyrimidin-4-ylmethyl]-amide] | ~1.62

Continued by falling IC50, values first:

IC50 [µM] | SMILES
5.62 | NS(=O)(=O)c1ccc(CCNc2nc(CNC(=O)[C@@H]3CCCN3S(=O)(=O)c3ccc(F)cc3)cc(-c3ccc(Br)cc3)n2)cc1 [Example 301, 1-(4-Fluoro-benzenesulfonyl)-pyrrolidine-2S-carboxylic acid {6-(4-bromo-phenyl)-2-[2-(4-sulfamoyl-phenyl)-ethylamino]-pyrimidin-4-ylmethyl}-amide]
~0.489 | CC(Nc1nc(CNC(=O)[C@@H]2CCCN2S(=O)(=O)c2ccc(F)cc2)cc(-c2ccc(C(F)(F)F)cc2)n1)c1ccccc1 (stereo partly drawn) [Example 313, 1-(4-Fluoro-benzenesulfonyl)-pyrrolidine-2S-carboxylic acid [2-(1-phenyl-ethylamino)-6-(4-trifluoromethyl-phenyl)-pyrimidin-4-ylmethyl]-amide]
